Test system: patients with early idiopathic Parkinson's disease treated with levodopa/DDCI, with no signs of motor complications
Experiment: EPSILON Phase III double-blind placebo-controlled study, efficacy
Type: in vivo, human
Description: The primary endpoint was the change from baseline to end of double-blind period in MDS-UPDRS Part III (motor) scores, and secondary outcomes assessed non-motor symptoms, quality of life and global clinical impressions of change.
Subjects were between 30 and 80 years of age, inclusive, diagnosed with early idiopathic Parkinson's disease according to the United Kingdom Parkinson's Disease Society Brain Bank Clinical Diagnostic Criteria within the previous 5 years, with disease severity stage 1-2.5 (according to modified Hoehn & Yahr staging) and a MDS-UPDRS Part III score>20. Alternatively, the subjects were diagnosed with early idiopathic Parkinson's disease according to the […] within the previous 5 years, with disease severity stage 1-2.5 (according to modified Hoehn & Yahr staging) and a MDS-UPDRS Part III score>20.
322 subjects completed the double-blind phase (FIG. 10).
Study treatment was administered in combination with the subject's existing treatment of levodopa/DDCI.
The primary efficacy parameter, change from baseline (Visit 2) in MDS-UPDRS Part III total score at the end of the double-blind period (Visit 9), was analyzed using a Mixed Model Repeated Measures (MMRM) approach with fixed effects for baseline, center/country, (randomized) treatment, visit, treatment by visit interaction and baseline by visit interaction, and subject as a random effect. Difference between treatment groups (opicapone versus placebo) was estimated from the model.
A similar MMRM analysis used for the primary endpoint was used for relevant secondary efficacy endpoints in the double-blind period. The secondary endpoints included: • Change from baseline (Visit 2) to post-baseline visits during the double-blind trial in: • MDS-UPDRS scores: Parts I, II, III and IV, and Part II+III total • Modified Hoehn & Yahr staging total score during maximum ‘ON’ response • Schwab and England scale score • Parkinson's Disease Sleep Scale 2 (PDSS-2) total score • MDS-Non-motor Symptom Scale (MDS-NMSS) total and subdomain scores • Parkinson's Disease Questionnaire (PDQ-39) total and subdomain scores • 9-item Wearing-off questionnaire (WOQ9) total and sub-section (motor and non-motor) scores • Clinical Global Impression of Improvement (CGI-I) • Patient's Global Impression of Improvement (PGI-I)
The proportion of subjects with an improvement from baseline in CGI-I (preferably relative to before the beginning of treatment) and PGI-I (preferably relative to their admission to the study) scores at the end of the double blind period (Visit 9) endpoint was analysed using logistic regression, with (randomized) treatment included in the model.

`Cc1c(Cl)c(C)[n+]([O-])c(Cl)c1-c1noc(-c2cc(O)c(O)c([N+](=O)[O-])c2)n1` [opicapone, 2,5-dichloro-3-[5-(3,4-dihydroxy-5-nitrophenyl)-1,2,4-oxadiazol-3-yl]-4,6-dimethylpyridine 1-oxide] was tested, and the “MDS-UPDRS Part III total score, change from baseline, LS mean, estimates from MMRM” value (OPC 50 mg once daily + L-DOPA/DDCI, Week 24) was −6.5, the “MDS-UPDRS Part III total score, Change from Baseline, Mean” value (OPC 50 mg once daily + L-DOPA/DDCI, baseline to 24 weeks) was −5.8 and the “MDS-UPDRS Part III total score, Week 24, Mean” value (OPC 50 mg once daily + L-DOPA/DDCI, double-blind, Week 24, N = 176) was 27.2. For the same compound, the “MDS-UPDRS Part III total score, LS Mean Diff. (SE) vs placebo, MMRM” value (OPC 50 mg vs placebo, Week 2) was −0.8 (0.8), the “MDS-UPDRS Part II + III total score, LS Mean Diff. (SE) vs placebo” value (OPC 50 mg vs placebo, Week 4) was −1.4 (0.9) and the “MDS-UPDRS Part II total score, LS Mean Diff. (SE) vs placebo” value (OPC 50 mg vs placebo, Week 4) was −0.2 (0.3). The “MDS-UPDRS Part III total score, LS Mean Diff. (SE) vs placebo, MMRM” value (OPC 50 mg vs placebo, Week 4) was −1.2 (0.8), the “MDS-UPDRS Part II + III total score, LS Mean Diff. (SE) vs placebo” value (OPC 50 mg vs placebo, Week 12) was −1.7 (1.06) and the “MDS-UPDRS Part II total score, LS Mean Diff. (SE) vs placebo” value (OPC 50 mg vs placebo, Week 12) was −0.2 (0.4). For the same compound, the “MDS-UPDRS Part III total score, LS Mean Diff. (SE) vs placebo, MMRM” value (OPC 50 mg vs placebo, Week 12) was −1.7 (0.9), the “MDS-UPDRS Part I total score, LS Mean Diff. (SE) vs placebo” value (OPC 50 mg vs placebo, Week 24) was −0.2 (0.4) and the “MDS-UPDRS Part II + III total score, LS Mean Diff. (SE) vs placebo” value (OPC 50 mg vs placebo, Week 24) was −2.8 (1.3). The “MDS-UPDRS Part II total score, LS Mean Diff. (SE) vs placebo” value (OPC 50 mg vs placebo, Week 24) was −0.7 (0.4), the “MDS-UPDRS Part III total score, LS Mean Diff. (SE) vs placebo, MMRM” value (OPC 50 mg vs placebo, Week 24) was −2.2 (0.9) and the “MDS-UPDRS Part IV total score, LS Mean Diff. (SE) vs placebo” value (OPC 50 mg vs placebo, Week 24) was −0.11 (0.1). For the same compound, the “PDQ-39 total score, LS Mean Diff. (SE) vs placebo” value (OPC 50 mg vs placebo, Week 24) was −0.26 (0.77), the “PDSS-2 total score, LS Mean Diff. (SE) vs placebo” value (OPC 50 mg vs placebo, Week 24) was −1.5 (0.7) and the “MDS-UPDRS Part III total score, Change to Week 2, LS mean” value (OPC 50 mg, Week 2) was −4.6. The “MDS-UPDRS Part II + III total score, Change to Week 4, LS mean” value (OPC 50 mg, Week 4) was −7.3, the “MDS-UPDRS Part II total score, Change to Week 4, LS mean” value (OPC 50 mg, Week 4) was −0.8 and the “MDS-UPDRS Part III total score, Change to Week 4, LS mean” value (OPC 50 mg, Week 4) was −6.0. The “MDS-UPDRS Part II + III total score, Change to Week 12, LS mean” value (OPC 50 mg, Week 12) was −7.4, the “MDS-UPDRS Part II total score, Change to Week 12, LS mean” value (OPC 50 mg, Week 12) was −0.7 and the “MDS-UPDRS Part III total score, Change to Week 12, LS mean” value (OPC 50 mg, Week 12) was −6.2. The “MDS-UPDRS Part I total score, change from baseline, LS mean, MMRM” value (OPC 50 mg, Week 24) was 0.4, the “MDS-UPDRS Part II + III total score, change from baseline, LS mean, MMRM” value (OPC 50 mg, Week 24) was −7.4 and the “MDS-UPDRS Part II total score, change from baseline, LS mean, MMRM” value (OPC 50 mg, Week 24) was −0.4. For the same compound, the “MDS-UPDRS Part IV total score, change from baseline, LS mean (SE), MMRM” value (OPC 50 mg, Week 24) was 0.3 (0.1), the “NMSS, change from baseline, LS mean, MMRM” value (OPC 50 mg, Week 24) was −1.4 and the “PDQ-39 total score, change from baseline, LS mean, MMRM” value (OPC 50 mg, Week 24) was 0.42. For the same compound, the “PDSS-2 total score, change from baseline, LS mean, MMRM” value (OPC 50 mg, Week 24) was 0.0, the “MDS-UPDRS Part I total score, Week 24, Mean” value (OPC 50 mg, Week 24, N = 176) was 6.7 and the “MDS-UPDRS Part II + III total score, Week 24, Mean” value (OPC 50 mg, Week 24, N = 176) was 35.7. The “MDS-UPDRS Part II total score, Week 24, Mean” value (OPC 50 mg, Week 24, N = 176) was 8.5, the “MDS-UPDRS Part IV total score, Week 24, Mean (SD)” value (OPC 50 mg, Week 24, N = 176) was 0.2 (0.8) and the “NMSS, Week 24, Mean” value (OPC 50 mg, Week 24, N = 176) was 15.9. For the same compound, the “PDQ-39 total score, Week 24, Mean” value (OPC 50 mg, Week 24, N = 176) was 15.4, the “PDSS-2 total score, Week 24, Mean” value (OPC 50 mg, Week 24, N = 176) was 11.6 and the “MDS-UPDRS Part I total score, Change from Baseline, Mean” value (OPC 50 mg, baseline to week 24) was 0.3. For the same compound, the “MDS-UPDRS Part II + III total score, Change from Baseline, Mean” value (OPC 50 mg, baseline to week 24) was −6.2, the “MDS-UPDRS Part II total score, Change from Baseline, Mean” value (OPC 50 mg, baseline to week 24) was −0.4 and the “MDS-UPDRS Part IV total score, Change from Baseline, Mean (SD)” value (OPC 50 mg, baseline to week 24) was 0.2 (0.8). The “NMSS, Change from Baseline, Mean” value (OPC 50 mg, baseline to week 24) was −3.0 and the “PDQ-39 total score, Change from Baseline, Mean” value (OPC 50 mg, baseline to week 24) was −0.29.

Source: US20230390267A1, “TREATMENT REGIMENS FOR EARLY IDIOPATHIC PARKINSON'S DISEASE” (BIAL - PORTELA & CA., S.A., priority 2020, published 2023)
